The subject of one assay is A. baumannii. To be noted: it is reported; cited from earlier work.
The subject of assay [1] is ATCC19606 (a standard strain of A. baumannii). Description: Animal protection experiment, mice infected with ATCC19606. To be noted: for ED50: Acinetobacter baumannii; for inhibitory effect on the standard strain of A. baumannii without drug resistance (in words): infected ICR mice, summary of Table 1. The format is in vivo, Acinetobacter baumannii. The protocol: (§1) Tested animals were ICR mice. Tested bacterial strains were ATCC19606 (a standard strain of A. baumannii), CBP-R (a carbapenem-resistant strain of A. baumannii), and CPZ/S-R (a cefoperazone-sulbactam-resistant strain of A. baumannii). Among them, the standard strain was obtained from ATCC, and the other strains were clinically isolated.
(§2) Determining the dose ranges of the tested samples: The tested strains were diluted with 5% high active dry yeast to obtain bacterial dilutions of different concentrations (10^−1, 10^−2, 10^−3, and 10^−4), and then intraperitoneally injected into the tested animals in 0.5 ml/mice. The number of dead mice after infection was recorded. The minimum bacterial dose, which kills 100% members of the mice, was recorded as 1 MLD. The mice were infected with 1 MLD of bacteria which was formulated with 5% high active dry yeast Immediately and 6 hours after the infection, a preliminary experiment was carried out with high, median and low dosages of the tested samples, and the survival numbers of the mice after infection were recorded. Based on the results of the preliminary experiment, the administration dosages of the tested samples were designed for the animal protection experiment.
(§3) Animal protection experiment: After fasting with water only for 18 h, the mice (half male and female, 25-30 g body weight) were randomly divided into: (1) ATCC19606 group, (2) CBP-R group, and (3) CPZ/S-R group. Each group was treated with five concentrations of the samples, and included 10 animals. In addition, 10 animals were incorporated as a control group. Each mouse was intraperitoneally injected with 0.5 ml of 1 MLD bacterial solution to establish an infection model. At 0 h and 6 h after infection, the mice were subcutaneously injected with different concentrations of the tested samples, 0.2 ml/mice, and the mice of the control group were injected with the same volume of sterilized water. The animals were observed continuously for 7 days, and the death of animals in each group was recorded. The 50% effective dose (ED50) of each tested sample was calculated by the Bliss method. Smaller ED50 means that the tested sample has better anti-bacterial effect in vivo, and better protective effect on the experimental animals.

Assay [2] has as its system CPZ/S-R (a cefoperazone-sulbactam-resistant strain of A. baumannii). Description: Animal protection experiment, mice infected with CPZ/S-R. The format is in vivo. To be noted: Acinetobacter baumannii, read-out: ED50 for animals infected with A. baumannii, CPZ/S-R a cefoperazone-sulbactam resistant A. baumannii. Here is the method: as §1
as §2, with “Based on the results of the preliminary experiment, the administration dosages of the tested samples were designed for the animal protection experiment.” left out
Animal protection experiment: After fasting with water only for 18 h, the mice (half male and female, 25-30 g body weight) were randomly divided into: (1) ATCC19606 group, (2) CBP-R group, and (3) CPZ/S-R group. […] The animals were observed continuously for 7 days, and the death of animals in each group was recorded. […]

The subject of assay [3] is CBP-R (a carbapenem-resistant strain of A. baumannii). Briefly: Animal protection experiment, mice infected with CBP-R. Format: in vivo, Acinetobacter baumannii. To be noted: for ED50: Acinetobacter baumannii, read-out: ED50 for animals infected with A. baumannii, CBP-R a carbapenem-resistant A. baumannii; for inhibitory / anti-bacterial effect on drug-resistant strains of A. baumannii (in words): infected ICR mice, drug-resistant strains (CBP-R and CPZ/S-R), summary of Table 1. The protocol: as §1, §2, §3

[4] abbreviates: ICR mice, 1 MLD i.p. infection, s.c. dosing at 0 h and 6 h, 7 days observation, Bliss method.

The structures appear in SMILES notation. Where two headings read alike, the source gives them in different places.

The source of these data is US11534438B2, “Composition containing piperacillin, pharmaceutical formulation thereof and use thereof” (priority 2017, dated 2022).

Regarding `CCN1CCN(C(=O)N[C@@H](C(=O)N[C@@H]2C(=O)N3[C@@H]2SC(C)(C)[C@@H]3C(=O)O)c2ccccc2)C(=O)C1=O` [piperacillin], in the assay on A. baumannii, the “resistance rate of A. baumannii” value is given as “over 70%”.
On to `C[C@@H](O)[C@H]1C(=O)N2C(C(=O)O)=C(S[C@@H]3CN[C@H](C(=O)N(C)C)C3)[C@H](C)[C@H]12` [Meropenem], for which the ED50 in assay [1] (ATCC19606, ICR mice, 1 MLD i.p. infection, s.c. dosing at 0 h and 6 h, 7 days observation, Bliss method, read-out: ED50 for animals infected with A. baumannii, ATCC19606 a standard strain) is less than 20 mg/kg; in assay [2] (setting [4]), 100 to 200 mg/kg; in assay [3] (setting [4]), more than 200 mg/kg. Moreover, the “inhibitory effect on the standard strain of A. baumannii without drug resistance (in words)” value in assay [1] is “more advantageous in pharmaceutical efficacy”. The “inhibitory / anti-bacterial effect on drug-resistant strains of A. baumannii (in words)” value in assay [3] is on record as “significantly decreased inhibitory effect”.
Regarding `CC1(C)[C@H](C(=O)O)N2C(=O)C[C@H]2S1(=O)=O` [Sulbactam, (2S,5R)-3,3-dimethyl-7-oxo-4-thia-1-azabicyclo[3.2.0]heptane-2-carboxylic acid-4,4-dioxide], the ED50 is less than 20 mg/kg in assay [1] (ATCC19606, read-out: ED50 for animals infected with A. baumannii, ATCC19606 a standard strain); more than 200 mg/kg in assay [2]; 100 to 200 mg/kg in assay [3]. The “inhibitory effect on the standard strain of A. baumannii without drug resistance (in words)” value in assay [1] is on record as “more advantageous in pharmaceutical efficacy”. Also, the “inhibitory / anti-bacterial effect on drug-resistant strains of A. baumannii (in words)” value in assay [3] is listed as “significantly decreased inhibitory effect”.
